Experimental data: patent publication US20110039762A1, “TARGETED ANTIMICROBIAL MOIETIES” (C3 JIAN, INC., priority 2009, published 2011)
“Also recorded” adds a separate entry of the source.

Test system: microorganisms (e.g., bacteria, yeasts, fungi)
Assay: Targeting peptide binding to target microorganisms (Table 3)
Conditions: microorganism(s) the targeting peptide binds; binding in aqueous buffers depending on peptide solubility, preferably 1x PBS

| Substance | Target(s) |
| --- | --- |
| PF-259 (LPFSKIGRRVSYKKKDVLKYEQSKTVLNTAQLATV; Peptide with targeting and/or antimicrobial activity) | S. epidermidis; also recorded: P. aeruginosa; also recorded: A. baumannii |
| PF-262 (DPHSEIDVTRYCQLHHFTCQTMQISEREFHYLIETQ; Peptide with targeting and/or antimicrobial activity) | S. mutans; also recorded: S. epidermidis; also recorded: M. luteus; also recorded: E. coli; also recorded: P. aeruginosa; also recorded: A. baumannii |
| PF-263 (NLKKCPC; Peptide with targeting and/or antimicrobial activity) | S. epidermidis; also recorded: M. luteus; also recorded: A. baumannii |
| PF-265 (MKTLFFPLFLIIFVLIIQALDQSYQKKIGISKPQKHPEFMQ; Peptide with targeting and/or antimicrobial activity) | S. epidermidis; also recorded: M. luteus; also recorded: A. baumannii |
| PF-266 (DQEKKNKTEESTEQ; Peptide with targeting and/or antimicrobial activity) | S. mutans |
| PF-267 (SDDKRTD; Peptide with targeting and/or antimicrobial activity) | M. luteus |
| PF-268 (EVLLSDLRPDIFSET; Peptide with targeting and/or antimicrobial activity) | S. mutans |
| PF-275 (LVSGVANTVKNTAHTVGNTAKHAGHVAADTTVKATKKQQVK; Peptide with targeting and/or antimicrobial activity) | S. mutans |
| PF-279 (SHIGFISISACLAVLLGIARLFVWTWVKFFA; Peptide with targeting and/or antimicrobial activity) | S. mutans; also recorded: S. epidermidis; also recorded: M. luteus; also recorded: E. coli; also recorded: P. aeruginosa; also recorded: A. baumannii |
| PF-281 (SYNTYYNKLIHGQRTPDGM; Peptide with targeting and/or antimicrobial activity) | S. mutans; also recorded: E. coli |
| PF-282 (QNNDTSAWCGSAHKNGNS; Peptide with targeting and/or antimicrobial activity) | S. mutans |
| PF-284 (MRYITYSLIPRLLSKKVIHQQ; Peptide with targeting and/or antimicrobial activity) | C. difficile |
| PF-285 (VPAKLLRVIDEIPE; Peptide with targeting and/or antimicrobial activity) | S. mutans |
| PF-288 (IYQLLNIEYSEDD; Peptide with targeting and/or antimicrobial activity) | S. mutans; also recorded: E. coli |
| PF-291 (DVDGAIESEL; Peptide with targeting and/or antimicrobial activity) | S. mutans; also recorded: E. coli |
| PF-295 (NIQVYESECGNYIFKKSDESFLIDIFDKNGTH; Peptide with targeting and/or antimicrobial activity) | C. difficile |
| PF-299 (LATKLKYEKEHKKM; Peptide with targeting and/or antimicrobial activity) | B. subtilis |
| PF-300 (VKDVLLELFNKIIGA; Peptide with targeting and/or antimicrobial activity) | B. subtilis; also recorded: C. difficile |
| PF-304 (LVKDTSDIKNDLNNIEIVTSKNSNDIAKLKSVK; Peptide with targeting and/or antimicrobial activity) | S. mutans |
| PF-308 (QQYLILDRM; Peptide with targeting and/or antimicrobial activity) | C. difficile |
| PF-309 (GIPGMTAAPAEENEQEENADEE; Peptide with targeting and/or antimicrobial activity) | S. mutans; also recorded: E. coli |
| PF-311 (IDAVTKKKTTCMIRAPTKIPIAHTDN; Peptide with targeting and/or antimicrobial activity) | C. difficile |
